Data reported in patent US11104648B2, “Pyrazole derivative” (Zhejiang Research Institute of Chemical Industry Co., Ltd., priority 2018, dated 2021).
Read-outs that look alike come from different tables or passages of the source.

Tests used:
Assay type in all cases: in vivo
[1] = tested on: adult Tetranychus cinnabarinus; assay: Activity assay of adult Tetranychus cinnabarinus (whole-plant spray on bean seedlings); details: 48 h; for pest or weed control at 1.25 µg/mL: concentration 1.25 mg/L
Summary of the method: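 Whole plants sprayed after adult mite inoculation and initial census, using compound dissolved in DMF and made up with 1‰ Tween 80 water (DMF not above 10%). Mortality derived from survivor counts at 48 h after treatment. Each treatment run in triplicate.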

[2] = tested on: Tetranychus cinnabarinus Nymphs; assay: Activity assay of Tetranychus cinnabarinus nymphs (spray on broad bean leaves)
Summary of the method: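 Mortality, judged as no response to gentle touch, was scored 48 h after spraying Tetranychus cinnabarinus nymphs on broad bean leaves (eggs from females removed after 24 h). Test solutions: DMF-dissolved compound, ≤10% DMF, in 1‰ Tween 80; 26±2° C., 70%–80% RH, 16 h light; triplicate, blank control.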

[3] = tested on: Eggs of Tetranychus Cinnabarinus; assay: Activity assay of eggs of Tetranychus cinnabarinus (spray method, ovicidal); details: Tetranychus cinnabarinus; for pest or weed control at 2 µg/mL: concentration 2 mg/L
Summary of the method: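 Ovicidal spray test: compound dissolved in DMF, diluted with 1‰ Tween 80 (DMF ≤10%), sprayed on eggs laid during 24 h by females on broad bean leaves. Culture at 26±2° C, 70–80% RH, 16 h photoperiod; non-hatched eggs scored as dead when blank control hatched; three repeats.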

[4] = adult mites, parallel determination, read-out: Death rate (%)
[5] = read-out: adult mite-killing activity
[6] = concentration 2.5 mg/L, read-out: adult mite-killing activity
[7] = 48 h, concentration 2 mg/L, read-out: nymph-killing activity
[8] = 48 h, concentration 2.5 mg/L, read-out: nymph-killing activity
[9] = 48 h, nymphs, concentration 0.5 mg/L, parallel determination, read-out: Death rate (%)
[10] = spray, read-out: ovicidal activity
[11] = concentration 5 mg/L, spray, non-incubated eggs counted as dead, read-out: ovicidal activity
[12] = eggs, parallel determination, read-out: Death rate (%)

Structure (SMILES)	pest or weed control at 2.5 µg/mL [1, 6] [%]	pest or weed control at 2.5 µg/mL [2, 8] [%]	pest or weed control at 5 µg/mL [3, 11] [%]	also measured
CCn1nc(C)cc1/C(OC(C)OC(=O)C(C)(C)C)=C(\C#N)c1ccc(C(C)(C)C)cc1 (stereo not drawn) [Compound 255]	≥ 90	≥ 95	≥ 90	pest or weed control at 1.25 µg/mL [1, 4]: 95%; pest or weed control at 1.25 µg/mL [1, 5]: ≥ 90%; pest or weed control at 2 µg/mL [2, 7]: ≥ 90%; pest or weed control at 0.5 µg/mL [2, 9]: 95%; pest or weed control at 2 µg/mL [3, 10]: ≥ 90%; pest or weed control at 2 µg/mL [3, 12]: 96%
CCCCC(=O)OC(C)O/C(=C(/C#N)c1ccc(C(C)(C)C)cc1)c1cc(C)nn1CC (stereo not drawn) [Compound 256]	≥ 90	≥ 95	≥ 90	
CCn1nc(C)cc1/C(OC(C)OC(=O)COC)=C(\C#N)c1ccc(C(C)(C)C)cc1 (stereo not drawn) [Compound 258]	≥ 90	≥ 95	≥ 90	
CCn1nc(C)cc1/C(OC(C)OC(=O)C1CC1)=C(\C#N)c1ccc(C(C)(C)C)cc1 (stereo not drawn) [Compound 259]	≥ 90	≥ 95	≥ 90	pest or weed control at 1.25 µg/mL [1, 5]: ≥ 90%; pest or weed control at 2 µg/mL [2, 7]: ≥ 90%; pest or weed control at 2 µg/mL [3, 10]: ≥ 90%
CCn1nc(C)cc1/C(OC(C)OC(=O)CSC)=C(\C#N)c1ccc(C(C)(C)C)cc1 (stereo not drawn) [Compound 260]	≥ 90	≥ 95	≥ 90	
CCn1nc(C)cc1/C(OC(C)OC(=O)C1CCCCC1)=C(\C#N)c1ccc(C(C)(C)C)cc1 (stereo not drawn) [Compound 261]	≥ 90	≥ 95	≥ 90	
CCn1nc(C)cc1/C(OC(C)OC(=O)CF)=C(\C#N)c1ccc(C(C)(C)C)cc1 (stereo not drawn) [Compound 262]				pest or weed control at 2.5 µg/mL [1, 5]: ≥ 90%; pest or weed control at 2.5 µg/mL ([2]; 48 h, read-out: nymph-killing activity): ≥ 95%; pest or weed control at 5 µg/mL ([3]; read-out: ovicidal activity): ≥ 90%
CCn1nc(C)cc1/C(OC(C)OC(=O)C(F)(F)F)=C(\C#N)c1ccc(C(C)(C)C)cc1 (stereo not drawn) [Compound 263]	≥ 90	≥ 95	≥ 90	
CCn1nc(C)cc1/C(OC(C)OC(=O)c1ccccc1)=C(\C#N)c1ccc(C(C)(C)C)cc1 (stereo not drawn) [Compound 264]	≥ 90	≥ 95	≥ 90	
CCn1nc(C)cc1/C(OC(C)OC(=O)Cc1ccccc1)=C(\C#N)c1ccc(C(C)(C)C)cc1 (stereo not drawn) [Compound 265]	≥ 90		≥ 90	pest or weed control at 2.5 µg/mL ([2]; concentration 2.5 mg/L, 48 h, read-out: nymph-killing activity): ≥ 95%
CCn1nc(C)cc1/C(OC(C)OC(=O)C(C)(C)CC)=C(\C#N)c1ccc(C(C)(C)C)cc1 (stereo not drawn) [Compound 266]	≥ 90	≥ 95	≥ 90	
C=CC(=O)OC(C)O/C(=C(/C#N)c1ccc(C(C)(C)C)cc1)c1cc(C)nn1CC (stereo not drawn) [Compound 267]	≥ 90	≥ 95	≥ 90	
CCn1nc(C)c(Cl)c1/C(OCOC(C)=O)=C(\C#N)c1ccc(C(C)(C)C)cc1 [Compound 301]	≥ 90	≥ 95	≥ 90	pest or weed control at 1.25 µg/mL [1, 4]: 90%; pest or weed control at 1.25 µg/mL [1, 5]: ≥ 90%; pest or weed control at 2 µg/mL [2, 7]: ≥ 90%; pest or weed control at 0.5 µg/mL [2, 9]: 90%; pest or weed control at 2 µg/mL [3, 10]: ≥ 90%; pest or weed control at 2 µg/mL [3, 12]: 95%
CCC(=O)OCO/C(=C(/C#N)c1ccc(C(C)(C)C)cc1)c1c(Cl)c(C)nn1CC [Compound 302]	≥ 90	≥ 95	≥ 90	pest or weed control at 1.25 µg/mL [1, 4]: 96%; pest or weed control at 1.25 µg/mL [1, 5]: ≥ 90%; pest or weed control at 2 µg/mL [2, 7]: ≥ 90%; pest or weed control at 0.5 µg/mL [2, 9]: 96%; pest or weed control at 2 µg/mL [3, 10]: ≥ 90%; pest or weed control at 2 µg/mL [3, 12]: 97%
CCCC(=O)OCO/C(=C(/C#N)c1ccc(C(C)(C)C)cc1)c1c(Cl)c(C)nn1CC [Compound 303]	≥ 90	≥ 95	≥ 90	
